Tests used:
Assay type in all cases: biochemical
Chk1 = target: T1, Chk1 (Homo sapiens, UniProt O14757); assay: LabChip (Caliper) kinase assay, Chk1; details: for inhibition at 0.01 µM: compound at 10 nM; for inhibition at 0.01 µM / inhibition at 0.1 µM: read-out: remaining kinase activity (in %) / percentage of inhibition; for inhibition at 0.1 µM: compound at 100 nM; for IC50: ATP at Km, read-out: CI50 (the source's name)
T1 construct: purchased Carna Biosciences
T1 sequence (O14757 1-476): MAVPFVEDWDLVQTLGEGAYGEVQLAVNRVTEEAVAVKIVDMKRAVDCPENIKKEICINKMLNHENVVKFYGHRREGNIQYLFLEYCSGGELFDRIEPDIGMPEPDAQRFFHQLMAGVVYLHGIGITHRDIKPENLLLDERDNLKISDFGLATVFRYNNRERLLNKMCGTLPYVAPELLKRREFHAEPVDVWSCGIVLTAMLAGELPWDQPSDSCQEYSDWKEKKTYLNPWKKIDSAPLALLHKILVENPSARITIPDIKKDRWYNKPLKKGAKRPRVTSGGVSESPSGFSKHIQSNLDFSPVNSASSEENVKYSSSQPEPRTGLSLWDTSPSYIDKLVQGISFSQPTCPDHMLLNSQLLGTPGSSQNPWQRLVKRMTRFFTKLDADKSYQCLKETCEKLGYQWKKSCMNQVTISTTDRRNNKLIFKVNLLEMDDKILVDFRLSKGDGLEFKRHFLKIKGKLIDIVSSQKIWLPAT
Protocol: (§1) The analysis of kinase activity described here was performed using LabChip (Caliper Life Sciences), specifically the Caliper LC3000 and the EZ Reader II instruments.
(§2) The kinase assay used measures the conversion of a fluorescent peptide (substrate) to a phosphorylated product. The reaction mixture, in a microplate well, is introduced by a capillary in a chip where the non-phosphorylated substrate and the phosphorylated product are separated by […]. The intensity of the fluorescent signal over time is related to the reaction progress. The phosphorylated product migrates quicker than the non-phosphorylated substrate and the signals of the two forms of the peptide appear as differentiated peaks. The Caliper determines the peak height and calculates the ratio of product to the peak sum (P/(P+S)). This value is used to compare wells with compounds and wells with controls and thus determine the % of inhibition for the given product.
(§3) The followings kinases were used for the enzymatic inhibition studies, between brackets the value of the Michaelis-Menten constant, Km, of the ATP (Adenosine triphosphate) for each kinase, in μM: obtained from Carna Biosciences: MAPKAPK2 (4.6), AurA (3.6), AurB (5), PKCζ (3.8), RSK1 (23.3), PRAK (5), Erk1 (33.4), PKD2 (32.1), CK1d (16.3), CHK1 (33), ABL (61.7), FYN (36), LYNa (17), CHK2 (57.8), MET (79.5), LCK (28.5), SRC (38), GSK3β (7.3), Erk2 (62.1), PKACα (1.7), AKT2 (186.1), INSR (871.8), p38a (396.5), AKT1(48), MSK1 (21.2), PKCβ2 (84.8), ROCK2 (3.3), PIM2 (4.9), AMPK (38.6), KDR (164.8), IRAK4 (196.5), SGK1 (121.8), SYK (33.5); obtained from Invitrogen: CDK2 (57.6), BTK (123), HGK (80); obtained from Upstate: MST2 (36.6), PKGα (16), PAK2 (1.9), IGF1R (320), FGFR1 (171), MARK1 (33), CAMK2δ (22.4), c-TAK1 (66), DYRK1a (18.1), CaMK4 (3.9), FLT3 (350), c-Raf (6.2), P70S6K (95).
(§4) The compounds were dissolved in 100% DMSO and were diluted at 25 times the final concentration desired for the assay. In the case of the determination of Cl50, serial dilutions were made to reach eight concentrations and give rise to the inhibition curve. 1 μL of each concentration is transferred, in duplicate to a 384-well microplate. 12 μL of enzymatic buffer is added to each well containing purified kinase (several suppliers as indicated above), 100 mM HEPES, pH 7.5, 1 mM DTT (Calbiochem), 0.002% Brij-35 (Sigma) and also in presence of 10 mM MgCl2 as cofactor, except for INSR and IRAK4 wherein 10 mM MnCl2 is used instead of MgCl2. For the kinases CAMK26 and CAMK4, 1 mM CaCl2 and 6.7 μg/mL of calmodulin are also added. For KDR kinase, 0.05% of the CHAPSO detergent is added. For the c-Raf kinase, 10 mM MnCl2 is added. For PKCβ2 0.02 μg/mL of PS/PMA is added. For PKGα se 10 μM of cGMP (cyclic guanosine monophosphate) is added. The compound and the enzyme are left for 15 minutes preincubation and, then, the following are added to each well: 12 μL of peptide buffer/ATP containing 100 mM HEPES, pH 7.5, 1.5 μM peptide marker with fluorescein (specific for the corresponding kinase), ATP (at concentration KM), and 0.002% Brij-35 to start the reaction. Generally, the reactions are incubated for 1-1.5 h at ambient temperature to obtain an adequate conversion (15-40%) of the peptide to the phosphorylated product. The reactions were ended by the addition of 45 μL of buffer containing 0 mM EDTA. The microplates were read by the LabChip 3000 using a 12-channel LabChip. The P/(P+S) values were obtained as described above and the CI50 curves were generated using XIfit.
(§5) Table 9a has the 0150 data obtained in pairs of compound-kinase selected from the compounds of formula (VII), (VIII), (IX), (XVI), (XVII) and (XVIII) after taking inhibition measurements at 100 nM and 10 nM. Those couples that provide >70% of inhibition at 10 nM were consider for measuring its IC50. […]

SYK = target: T2, SYK (Homo sapiens, UniProt P43405); assay: LabChip (Caliper) kinase assay, SYK; details: for inhibition at 0.01 µM: compound at 10 nM; for inhibition at 0.01 µM / inhibition at 0.1 µM: read-out: remaining kinase activity (in %) / percentage of inhibition; for inhibition at 0.1 µM: compound at 100 nM; for IC50: ATP at Km, read-out: CI50 (the source's name)
T2 construct: purchased Carna Biosciences
Protocol: as §1, §2, §3, §4, §5

JAK2 = JAK2 (Homo sapiens, UniProt O60674); assay: LabChip (Caliper) kinase assay, JAK2; details: for inhibition at 0.01 µM / inhibition at 0.1 µM: JAK2, read-out: remaining kinase activity (in %) / percentage of inhibition; for inhibition at 0.01 µM: compound at 10 nM; for inhibition at 0.1 µM: compound at 100 nM; for IC50: Jak2, ATP at Km, read-out: CI50 (the source's name)
JAK2, sequence (O60674 whole entry, species assumed): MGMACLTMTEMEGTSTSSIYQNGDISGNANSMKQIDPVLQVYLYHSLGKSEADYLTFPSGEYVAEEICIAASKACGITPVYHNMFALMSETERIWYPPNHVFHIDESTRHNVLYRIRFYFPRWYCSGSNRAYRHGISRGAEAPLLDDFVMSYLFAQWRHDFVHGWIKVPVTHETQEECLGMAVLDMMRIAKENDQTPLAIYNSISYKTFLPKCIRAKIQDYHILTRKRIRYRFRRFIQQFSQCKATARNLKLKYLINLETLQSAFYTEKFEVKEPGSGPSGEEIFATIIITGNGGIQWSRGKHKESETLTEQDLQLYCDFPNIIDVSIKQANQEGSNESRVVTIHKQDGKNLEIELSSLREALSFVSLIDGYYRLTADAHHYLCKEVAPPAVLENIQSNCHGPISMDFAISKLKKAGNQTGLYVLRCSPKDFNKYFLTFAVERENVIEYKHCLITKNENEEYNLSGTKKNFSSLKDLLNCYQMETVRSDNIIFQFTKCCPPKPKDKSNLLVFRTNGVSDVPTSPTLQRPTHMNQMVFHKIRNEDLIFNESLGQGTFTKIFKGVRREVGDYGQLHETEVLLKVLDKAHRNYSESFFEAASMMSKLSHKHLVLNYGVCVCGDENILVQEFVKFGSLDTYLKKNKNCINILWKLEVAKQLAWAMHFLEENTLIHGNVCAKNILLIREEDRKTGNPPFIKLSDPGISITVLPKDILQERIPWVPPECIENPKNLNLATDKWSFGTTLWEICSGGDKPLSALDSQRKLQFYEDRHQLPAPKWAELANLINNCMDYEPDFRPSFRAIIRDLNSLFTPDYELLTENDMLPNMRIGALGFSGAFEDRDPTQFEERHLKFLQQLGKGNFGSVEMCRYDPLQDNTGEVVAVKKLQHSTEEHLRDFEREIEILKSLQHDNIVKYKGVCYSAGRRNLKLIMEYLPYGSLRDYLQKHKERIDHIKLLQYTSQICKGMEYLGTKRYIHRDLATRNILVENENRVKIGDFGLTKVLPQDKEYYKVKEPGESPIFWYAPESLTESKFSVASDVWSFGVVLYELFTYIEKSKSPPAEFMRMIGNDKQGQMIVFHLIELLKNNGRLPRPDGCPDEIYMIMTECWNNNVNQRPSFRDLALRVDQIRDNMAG
Protocol: as §1, §2, §3, §4, §5

Row | SMILES | inhibition at 0.01 µM (Chk1) | inhibition at 0.1 µM (Chk1) | inhibition at 0.01 µM (SYK) | inhibition at 0.1 µM (SYK) | inhibition at 0.01 µM (JAK2) | inhibition at 0.1 µM (JAK2) | IC50 (Chk1) | IC50 (SYK) | IC50 (JAK2)
1 | C[C@@H]1O[C@@H](n2c3ccccc3c3c4c(c5c6ccccc6[nH]c5c32)CNC4=O)[C@H](O)[C@H](O)[C@H]1O [formula (XII), N^13-1′-β-L-rhamnosyl-k252c] | 2% | 8% | 8% | 10% | 7% | 39% |  |  | 
2 | C[C@@H]1O[C@@H](n2c3ccccc3c3c4c(c5c6ccccc6[nH]c5c32)C(=O)NC4=O)C[C@H](O)[C@H]1O [formula (IV), N^13-1′-β-L-olivosylarcyriaflavin] | 5% | 35% | 11% | 35% | 19% | 74% |  |  | 
3 | C[C@H]1O[C@@H](n2c3ccccc3c3c4c(c5c6ccccc6[nH]c5c32)C(=O)NC4=O)C[C@@H](O)[C@@H]1O [formula (VI), N^13-1′-β-D-olivosylarcyriaflavin] | 2% | 50% | 5% | 31% | 42% | 88% |  |  | 
4 | C[C@]12O[C@H](C[C@H](O)[C@H]1O)n1c3ccccc3c3c4c(c5c6ccccc6n2c5c31)C(=O)NC4=O [formula (VIII), N^12-5′(S)-N^13-1′-(R)-L-olivosylarcyriaflavin] |  |  |  |  |  |  | 4.9 nM | 1.1 nM | 0.74 nM
5 | C[C@]12O[C@H](C[C@H](O)[C@H]1O)n1c3ccccc3c3c4c(c5c6ccccc6n2c5c31)CNC4=O [formula (XVII), N^12-5′(S)-N^13-1′-(R)-L-olivosyl-k252c] |  |  |  |  |  |  |  |  | 0.57 nM
6 | C[C@@H]1O[C@@H](n2c3ccccc3c3c4c(c5c6ccccc6[nH]c5c32)C(=O)NC4=O)C[C@@H](O)[C@H]1O [formula (V), N^13-1′-β-L-digitoxosylarcyriaflavin] | 45% | 81% | 13% | 24% | 23% | 65% |  |  | 
7 | C[C@]12O[C@H](C[C@@H](O)[C@H]1O)n1c3ccccc3c3c4c(c5c6ccccc6n2c5c31)CNC4=O [formula (XVIII), N^12-5′(S)-N^13-1′-(R)-L-digitoxosyl-k252c] |  |  |  |  |  |  | > 10 nM | > 10 nM | 0.53 nM
8 | C[C@]12O[C@H]([C@H](O)[C@H](O)[C@H]1O)n1c3ccccc3c3c4c(c5c6ccccc6n2c5c31)C(=O)NC4=O [formula (VII), N^12-5′(S)-N^13-1′-(R)-L-rhamnosylarcyriaflavin] |  |  |  |  |  |  | 1 nM | 1 nM | 0.5 nM
9 | C[C@@H]1O[C@@H](n2c3ccccc3c3c4c(c5c6ccccc6[nH]c5c32)C(=O)NC4=O)[C@H](O)[C@H](O)[C@H]1O [formula (III), N^13-1′-β-L-rhamnosylarcyriaflavin] | -3% | 15% | 2% | -8% | -3% | 33% |  |  | 
10 | C[C@@H]1O[C@@H](n2c3ccccc3c3c4c(c5c6ccccc6[nH]c5c32)CNC4=O)C[C@@H](O)[C@H]1O [formula (XIV), N^13-1′-β-L-digitoxosyl-k252c] | 6% | 46% | -1% | 11% | -4% | 25% |  |  | 
11 | C[C@H]1O[C@@H](n2c3ccccc3c3c4c(c5c6ccccc6[nH]c5c32)CNC4=O)C[C@@H](O)[C@@H]1O [formula (XV), N^13-1′-β-D-olivosyl-k252c] | 4% | 20% | 7% | 29% | 37% | 89% |  |  | 
12 | C[C@@H]1O[C@@H](n2c3ccccc3c3c4c(c5c6ccccc6[nH]c5c32)CNC4=O)C[C@H](O)[C@H]1O [formula (XIII), N^13-1′-β-L-olivosyl-k252c] | 1% | 27% | 12% | 30% | 14% | 79% |  |  | 
13 | C[C@]12O[C@H](C[C@@H](O)[C@H]1O)n1c3ccccc3c3c4c(c5c6ccccc6n2c5c31)C(=O)NC4=O [formula (IX), N^12-5′(S)-N^13-1′-(R)-L-digitoxosylarcyriaflavin] |  |  |  |  |  |  |  | 2.3 nM | 1.2 nM
14 | C[C@]12O[C@H]([C@H](O)[C@H](O)[C@H]1O)n1c3ccccc3c3c4c(c5c6ccccc6n2c5c31)CNC4=O [formula (XVI), N^12-5′(S)-N^13-1′-(R)-L-rhamnosyl-k252c] |  |  |  |  |  |  | 2.4 nM |  | 0.43 nM
